Reference: patent US5308606A, “Method of treating and/or diagnosing soft tissue tumors” (priority 1991, dated 1994)
Several values for one entry are separate records, joined by “and”; a condition that tells them apart may be missing. Identical values can stand only once. Like-named read-outs stand apart in the source and are kept apart here.

Tests used:
non-target tissues = settings: in vivo; cited from earlier work
[1] = in vivo; cited from earlier work
[2] = Whole body retention in miniature pigs having naturally occurring melanomic lesions
Description: (§1) Studies to determine the qualitative biodistribution of the various radionuclides were conducted by injecting the compositions into miniature pigs having melanotic lesions, which occur spontaneously. ^67 Ga-citrate was used as the control and was given by the same route of administration as the test samples.
Each injected solution was from 0.5-1 mL having 1-2 mCi of ^153 Sm present. Each pig had whole body counts immediately after injection and again at 24, 48 and 72 hours.
(§2) Images of each pig (right lateral, left lateral and dorsal) were taken at 4, 24, 48 and 72 hours. The 24 hour images were evaluated independently by 3 investigators using the following scheme for the uptake of ^153 Sm in various tissues:

tumor = assay: Tumor uptake, scored from images of miniature pigs having melanomic lesions by 3 investigators; settings: for Tumor Uptake (Location): average score (0-3) of 3 investigators
Description: as §1
(§3) Each injected solution was from 0.5-1 mL having 1-2 mCi of ^153 Sm present.
as §2
1=Slight uptake (negligible)
2=Moderate uptake (intermediate)
(§4) The tissues evaluated were bone, liver and tumor.

bone [3] = assay: Bone uptake, scored from images of miniature pigs by 3 investigators; settings: average score (0-3) of 3 investigators; head 72 hr, text 24 hour images; one value per pig
Description: as §1, §3, §2
1=Slight uptake (negligible)
2=Moderate uptake (intermediate)
as §4

liver [4] = assay: Liver uptake, scored from images of miniature pigs by 3 investigators
Description: as §1, §3, §2
1=Slight uptake (negligible)
2=Moderate uptake (intermediate)
as §4

bone [5] = settings: pig, in vivo
Description: as §1, §3, §2
1=Slight uptake (negligible)
2=Moderate uptake (intermediate)
as §4

liver [6] = settings: pig, in vivo
Description: as §1, §3, §2
1=Slight uptake (negligible)
2=Moderate uptake (intermediate)
as §4

[7] = in vivo; cited from earlier work; remark: listed apart in the source
liver [8] = settings: in vivo; cited from earlier work
Ehrlich tumors = settings: animals bearing Ehrlich tumors; cited from earlier work

O=C([O-])CC(O)(CC(=O)[O-])C(=O)[O-].[67Ga+3] [B]
uptake in non-target tissues (non-target tissues): high uptake | rate of blood clearance [1]: slow | % Whole Body Retention (72 hrs.) ([2]; 72 hrs, L/M ratio 20 (A), 257 (1), one value per pig): 98.5 % of injected dose and 96.7 % of injected dose and 97.1 % of injected dose | clearance of the extra-cellular fluid ([2]; in words): never cleared the extra-cellular fluid | Tumor Uptake (Location) (tumor; Draining node): 1.67 | Tumor Uptake (Location) (tumor; Left head): 3.00 | Tumor Uptake (Location) (tumor; Left sacrum): 0.00 | Tumor Uptake (Location) (tumor; Right head): 0.33 | Tumor Uptake (Location) (tumor; Right stifle): 2.00 | Tumor Uptake (Location) (tumor; Right thorax): 3.00 | tumor image (tumor; miniature pigs, relative to background radiation): almost indistinguishable from the high background radiation | Bone Uptake (72 hr) (bone [3]): 1.00 | Liver Uptake (72 hrs) (liver [4]; average score (0-3) of 3 investigators, head 72 hrs, text 24 hour images, one value per pig): 3.00 | liver uptake (liver [4]; miniature pigs, in words): unacceptably large liver uptake

CC(=O)Nc1cc(CN(CC(=O)O)CC(=O)O)c(O)c(CN(CC(=O)O)CC(=O)O)c1.[153Sm+3] [Example 1]
Bone Uptake (72 hr) (bone [5]): 3.00 | Liver Uptake (72 hrs) (liver [6]): 1.00

O=C([O-])CN(CCN(CC(=O)[O-])CC(=O)[O-])CCN(CC(=O)[O-])CC(=O)[O-].[99Tc+4] [^99m Tc-DTPA]
elimination of the radionuclide [7]: eliminated from the body by the kidneys into the urine | tissue localization of the radionuclide [7]: does not result in the radionuclide localizing in any tissue

[Cl][153Sm]([Cl])[Cl] [^153 Sm-chloride]
liver uptake (liver [8]): high liver uptake

^99m Tc-ethylenediaminediacetic acid
imaging of tumors (Ehrlich tumors): could be used to image tumors

^153 Sm-citrate
liver uptake (liver [8]): high liver uptake
